Data published in paper PMC5510229, “BCAT1 controls metabolic reprogramming in activated human macrophages and is associated with inflammatory diseases” (Nature Communications, 2017).

What was measured:
[1] = system: human monocyte-derived macrophages (hMDMs); test: qRT-PCR / Western blot of activation markers in hMDMs; assay type: cell-based
recombinant human BCAT2 = target: T1, recombinant human BCAT2 (Homo sapiens, UniProt O15382); test: BCAT2 aminotransferase enzymatic assay (continuous fluorometric); assay type: biochemical
T1 construct: purchased Abcam
T1 sequence (O15382 28-392): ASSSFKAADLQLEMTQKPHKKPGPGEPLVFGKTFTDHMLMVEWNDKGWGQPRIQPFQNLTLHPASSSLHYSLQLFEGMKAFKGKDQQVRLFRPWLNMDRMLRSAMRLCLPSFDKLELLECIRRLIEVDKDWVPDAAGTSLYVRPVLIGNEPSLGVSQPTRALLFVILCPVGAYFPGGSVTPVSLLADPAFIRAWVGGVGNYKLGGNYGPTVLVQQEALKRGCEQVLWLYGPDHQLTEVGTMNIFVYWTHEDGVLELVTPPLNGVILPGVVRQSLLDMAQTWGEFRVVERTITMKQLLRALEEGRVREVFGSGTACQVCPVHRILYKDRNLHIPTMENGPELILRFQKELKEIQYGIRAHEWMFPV

[2] = system: mouse bone marrow derived macrophages (BMDMs); test: BMDM transwell migration assay; assay type: cell-based, C57BL/6 mouse; conditions: 10 hours, 10% FBS as chemo-attractant
From the text: Figure 6 ERG240 treatment results in reduced macrophage infiltration in CIA and crescentic glomerulonephritis. (a) Inhibition of murine BMDM migration in vitro in the presence of different concentrations of ERG240 by transwell migration assay (left panel, results are presented as the average of four experiments). The drug had no effect on cell viability (right panel, results are presented as the average of three experiments). (b) IHC analysis of CIA joints for expression of F4/80. Representative images show F4/80+ cells (indicated with an arrow). F4/80+ cell quantification is shown on the right panel. (c) Representative images showing glomerular ED1 (rat CD68)-positive cells in ERG240 treated animals following NTN. Percentage of glomerular ED1-positive cell quantification is shown on the right panel. Error bars are s.e.m. […]
The migration of BMDMs was assessed using a modified Bo yden chamber methodology. […]
To determine the effect of ERG240 on the total number of BMDMs, cell s were plated onto a 96-well plate at a density of 5,000 cells per well in complete media and allowed to adhere overnight. The cells were then exposed to various drug concentrations overnight and the cell population was quantified with CyQuant Cell Proliferation kit (Life Technologies) using triplicates, in two independent experiments. For hMDMs, cell viability was determined using the alamarBlue® Assa y (Invitrogen). […]

[3] = LPS 100 ng/ml + ERG240 20 mM, 3 h, qRT-PCR

CC(=O)C(C)CCC(=O)O (stereo not drawn) [ERG240]
NOS2 expression levels [1, 3]: significantly reduced
TNF expression levels [1, 3]: significantly reduced
IL-1β levels, long-term exposure ([1]; LPS + ERG240 20 mM, 24 h, Western blot): reduced IL-1β levels
IRG1 expression in TNF-stimulated human macrophages ([1]; TNF 2 ng/ml, ERG240 20 mM, 8 h): comparable inhibitory effect
inhibition of BCAT2 (recombinant human BCAT2): no inhibition
IC50 [2]: 5 to 10 mM
